Measured values from patent US20240208969A1, “SUBSTITUTED FUSED BICYCLIC COMPOUNDS AS PARP INHIBITORS AND THE USE THEREOF” (IMPACT THERAPEUTICS (SHANGHAI), INC., priority 2021, published 2024).

Tested on: MDA-MB-436 cells
Assay: Inhibition of proliferation of human breast cancer MDA-MB-436 cell line (CCK-8, 7 days)
Type: cell-based
Details: Homo sapiens, 168 h, proliferation of MDA-MB-436, 7 days
Experimental: The cells were cultured in complete medium (DMEM medium +10% FBS+Insulin+glutathione). When the confluence reached about 80%, cells were digested and gently dispensed from the bottom of the dish with a 1 mL pipette. Cell suspension was collected and centrifuged at 500 rpm for 3 min. The supernatant was discarded, and the cell pellet were re-suspended in complete medium. The cells were seeded into a culture dish at an appropriate proportion, and then cultured in a 5% CO2 incubator at 37° C. The assay was carried out when the cells were in optimum condition and the confluence was reached 80%. Cells were harvested in the logarithmic growth phase by using 1 mL pipette gently and then centrifugated at 500 rpm for 3 min. The cells were resuspended by using refresh medium after removing the supernatant and then the cells were counted. The cells were seeded at 3000/well in a 96 well plate and incubated at 37° C. 5% CO2 incubator overnight. In the second day, cells were treated with compound at 8 serially diluted dose with 1000×final concentration in 100% DMSO. The compound was prepared as below: 1000×dilution tested compound solution to 40×test compound solution by adding 5μL, 1000×compound solution to 120 μL Medium (25-fold dilution). The solution was mixed by oscillation. DMSO was used as the control.
The medium was removed from the wells in the plate after the plate was taken out from incubator. Then, fresh medium of 195 μL/per well was added to the 96 well plate. 5μL/per well of 40×test compound solution was added into the 96 well plate. Finally, the plate was incubated for 7 days in a 37° C. 5% CO2 incubator. The medium containing compound was changed once on the fourth day. After 7 days, 20 μL of CCK-8 was added to each well and shake gently, then was cultured for 4 hours. The plate was shaken for 5 min after incubation, the absorbance values of 450 nm. and 650nm wavelengths were recorded respectively (OD=absorbance value of 450 nm−absorbance value of 650 nm) by using the multifunction readout instrument.
Data were analyzed by software GraphPad Prism 6.0. The inhibitory activity of compounds on cell proliferation was plotted using cell survival rate against the compound concentration as coordinates. Cell survival rate %=(ODcompound−ODbackground)/(ODDMSO−ODbackground)×100. The IC50 value was fitted by the s-shaped dose response curve equation: Y=100/(1+10^(log C−log IC50)), and C was the compound concentration.
Table 2 summarizes the inhibitory effect data (IC50) of the compounds on the proliferation of human breast cancer cells MDA-MB-436, wherein ++++ indicates 1<IC50≤10 nM; +++ indicates 10 nM<IC50≤100 nM; ++ indicates 100 nM<IC50≤1 μM; + indicates IC50>1 μM.

SMILES	IC50 [µM]
CCn1c(=O)[nH]c2cc(CN3CCN(c4ccc(C(=O)NC)cc4F)CC3)ccc2c1=O [Example 69, 4-(4-((3-ethyl-2,4-dioxo-1,2,3,4-tetrahydroquinazolin-7-yl)methyl)piperazin-1-yl)-3-fluoro-N-methyibenzamide]	> 1
CCn1c(=O)[nH]c2cc(CN3CCN(c4ccc(C(=O)NC)cc4Cl)CC3)ccc2c1=O [Example 70, 3-chloro-4-(4-((3-ethyl-2,4-dioxo-1,2,3,4-tetrahydroquinazolin-7-yl)methyl)piperazin-1-yl)-N-methylbenzamide]	> 1
CCn1c(=O)[nH]c2cc(CN3CCN(c4ccc(C(=O)NC)cc4C)CC3)ccc2c1=O [Example 71, 4-(4-((3-ethyl-2,4-dioxo-1,2,3,4-tetrahydroquinazolin-7-yl)methyl)piperazin- -yl)-N,3-dimethylbenzamide]	> 1
CCn1c(=O)[nH]c2cc(CN3CCN(c4c(C)cc(C(=O)NC)nc4C)CC3)ccc2c1=O [Example 72, 5-(4-((3-ethyl-2,4-dioxo-1,2,3,4-tetrahydroquinazolin-7-yl)methyl)piperazin-1-yl)-N,4,6-trimethylpicolinamide]	> 1
CCn1c(=O)[nH]c2nc(CN3CCN(c4ccc(C(=O)NC)nc4C)CC3)ccc2c1=O [Example 74, 5-(4-((3-ethyl-2,4-dioxo-1,2,3,4-tetrahydropyrido[2,3-d]pyrimidin-7-yl)methyl)piperazin-1-yl)-N,6-dimethylpicolinamide]	> 1
CCn1c(=O)[nH]c2cc(CN3CCN(c4ncc(C(=O)NC)cc4C)CC3)ccc2c1=O [Example 79, 6-(4-((3-ethyl-2,4-dioxo-1,2,3,4-tetrahydroquinazolin-7-yl)methyl)piperazin-1-yl)-N,5-dimethylnicotinamide]	> 1
CCn1c(=O)[nH]c2cc(CN3CCN(c4ccc(C(=O)NC)nc4C(C)C)CC3)ccc2c1=O [Example 80, 5-(4-((3-ethyl-2,4-dioxo-1,2,3,4-tetrahydroquinazolin-7-yl)methyl)piperazin-1-yl)-6-isopropyl-N-methylpicolinamide]	> 1
CCn1c(=O)[nH]c2cc(CN3CCN(c4ccc(C(=O)NC)nc4C)CC3)ncc2c1=O [Example 81, 5-(4-((3-ethyl-2,4-dioxo-1,2,3,4-tetrahydropyrido[4,3-d]pyrimidin-7-yl)methyl)piperazin-1-yl)-N,6-dimethylpicolinamide]	0.01 to 0.1
CCNC(=O)c1ccc(N2CCN(Cc3cc(F)c4c(=O)n(CC)c(=O)[nH]c4c3)CC2)c(C)n1 [Example 82, N-ethyl-5-(4-((3ethyl-5-fluoro-2,4-dioxo-1,2,3,4-tetrahydroquinazolin-7-yl)methyl)piperazin-1-yl)-6-methylpicolinamide]	0.01 to 0.1
CNC(=O)c1ccc(N2CCN(Cc3ccc4c(=O)n(CC(F)(F)F)c(=O)[nH]c4c3)CC2)c(C)n1 [Example 87, 5-(4-((2,4-dioxo-3-(2,2,2-trifluoroethyl)-1,2,3,4-tetrahydroquinazolin-7-yl)methyl)piperazin-1-yl)-N,6-dimethylpicolinamide]	> 1
CCn1c(=O)[nH]c2cc(CN3CCN(c4ccc(C(=O)NC)nc4Br)CC3)ccc2c1=O [Example 94, 6-bromo-5-(4-((3-ethyl-2,4-dioxo-1,2,3,4-tetrahydroquinazolin-7-yl)methyl)piperazin-1-yl)-N-methylpicolinamide]	0.01 to 0.1
CCNC(=O)c1ccc(N2CCN(Cc3ccc4c(=O)n(CC)c(=O)[nH]c4c3)CC2)c(Br)n1 [Example 95, 6-bromo-N-ethyl-5-(4-((3-ethyl-2,4-dioxo-1,2,3,4-tetrahydroquinazolin-7-yl)methyl)piperazin-1-yl)picolinamide]	0.01 to 0.1
CNC(=O)c1ccc(N2CCN(Cc3ccc4c(=O)n(C)c(=O)[nH]c4c3)CC2)c(Cl)n1 [Example 98, 6-chloro-N-methyl-5-(4-((3-methyl-2,4-dioxo-1,2,3,4-tetrahydroquinazolin-7-yl)methyl)piperazin-1-yl)picolinamide]	0.1 to 1
CNC(=O)c1ccc(N2CCN(Cc3ccc4c(=O)n(C)c(=O)[nH]c4c3)CC2)c(C)n1 [Example 99, N,6-dimethyl-5-(4-((3-methyl-2,4-dioxo-1,2,3,4-tetrahydroquinazolin-7-yl)methyl)piperazin-1-yl)picolinamide]	0.01 to 0.1
CCNC(=O)c1ccc(N2CCN(Cc3ccc4c(=O)n(C)c(=O)[nH]c4c3)CC2)c(Cl)n1 [Example 100, 6-chloro-N-ethyl-5-(4-((3-methyl-2,4-dioxo-1,2,3,4-tetrahydroquinazolin-7-yl)methyl)piperazin-1-yl)picolinamide]	0.1 to 1
CCNC(=O)c1ccc(N2CCN(Cc3ccc4c(=O)n(C)c(=O)[nH]c4c3)CC2)c(C)n1 [Example 101, N-ethyl-6-methyl-5-(4-((3-methyl-2,4-dioxo-1,2,3,4-tetrahydroquinazolin-7-yl)methyl)piperazin-1-yl)picolinamide]	0.1 to 1
CCNC(=O)c1ccc(N2CCN(Cc3cnc4c(=O)n(CC)c(=O)[nH]c4c3)CC2)c(Cl)n1 [Example 102, 6-chloro-N-ethyl-5-(4-((3-ethyl-2,4-dioxo-1,2,3,4-tetrahydropyrido[3,2-d]pyrimidin-7-yl)methyl)piperazin-1-yl)picolinamide]	0.01 to 0.1
CCNC(=O)c1ccc(N2CCN(Cc3cnc4c(=O)n(CC)c(=O)[nH]c4c3)CC2)c(C)n1 [Example 103, N-ethyl-5-(4-((3-ethyl-2,4-dioxo-1,2,3,4-tetrahydropyrido[3,2-d]pyrimidin-7-yl)methyl)piperazin-1-yl)-6-methylpicolinamide]	0.01 to 0.1
CNC(=O)c1ccc(N2CCN(Cc3cc(F)c4c(=O)n(C)c(=O)[nH]c4c3)CC2)c(C)n1 [Example 105, 5-(4-((5-fluoro-3-methyl-2,4-dioxo-1,2,3,4-tetrahydroquinazolin-7-yl)methyl)piperazin-1-yl)-N,6-dimethylpicolinamide]	0.1 to 1
CCn1c(=O)[nH]c2cc(CN3CCN(c4ccc(C(=O)NC)nc4OC)CC3)cnc2c1=O [Example 109, 5-(4-((3-ethyl-2,4-dioxo-1,2,3,4-tetrahydropyrido[3,2-d]pyrimidin-7-yl)methyl)piperazin-1-yl)-6-methoxy-N-methylpicolinamide]	0.1 to 1
CCn1c(=O)[nH]c2cc(CN3CCN(c4ccc5cc[nH]c5c4)CC3)ccc2c1=O [Example 110, 7-((4-(1H-indol-6-yl)piperazin-1-yl)methyl)-3-ethylquinazoline-2,4(1H,3H)-dione]	> 1
CCn1c(=O)[nH]c2cc(CN3CCN(c4ccc5cn[nH]c5c4)CC3)ccc2c1=O [Example 111, 7-((4-(1H-indazol-6-yl)piperazin-1-yl)methyl)-3-ethylquinazoline-2,4(1H,3H)-dione]	> 1
CCn1c(=O)[nH]c2cc(CN3CCN(c4ccc5[nH]ncc5c4)CC3)ccc2c1=O [Example 112, 7-((4-(1H-indazol-5-yl)piperazin-1-yl)methyl)-3-ethylquinazoline-2,4(1H,3H)-dione]	> 1
CCNC(=O)c1ccc(N2CCN(Cc3ccc4c(c3)NC(=O)N(CC)C4)CC2)c(Cl)n1 [Example 118, 5-(4-((3-ethyl-2-oxo-1,2,3,4-tetrahydroquinazolin-7 yl)methyl)piperazin-1-yl)-6-chloro-N-ethylpicolinamide]	0.01 to 0.1
CCN1Cc2c(F)cc(CN3CCN(c4ccc(C(=O)NC)nc4Cl)CC3)cc2NC1=O [Example 120, 6-chloro-5-(4-((3-ethyl-5-fluoro-2-oxo-1,2,3,4-tetrahydroquinazolin-7-yl)methyl)piperazin-1-yl)-N-methylpicolinamide]	0.01 to 0.1
CCNC(=O)c1ccc(N2CCN(Cc3cc(F)c4c(c3)NC(=O)N(CC)C4)CC2)c(C)n1 [Example 121, N-ethyl-5-(4-((3-ethyl-5-fluoro-2-oxo-1,2,3,4-tetrahydroquinazolin-7-yl)methyl)piperazin-1-yl)-6-methylpicolinamide]	0.01 to 0.1
CCNC(=O)c1ccc(N2CCN(Cc3cc(Cl)c4c(=O)n(CC)c(=O)[nH]c4c3)CC2)c(Cl)n1 [Example 126, 6-chloro-5-(4-((5-chloro-3-ethyl-2,4-dioxo-1,2,3,4-tetrahydroquinazolin-7-yl)methyl)piperazin-1-yl)-N-ethylpicolinamide]	0.001 to 0.01
CCn1c(=O)[nH]c2cc(CN3CCN(c4ccc(C(=O)NC5CC5)nc4Cl)CC3)cc(Cl)c2c1=O [Example 131, 6-chloro-5-(4-((5-chloro-3-ethyl-2,4-dioxo-1,2,3,4-tetrahydroquinazolin-7-yl)methyl)piperazin-1-yl)-N-cyclopropylpicolinamide]	0.001 to 0.01
